IC50 data for 24 molecules are collected here from US10711004B2 (Genentech, Inc., priority 2018, dated 2020).

In the assay the target is human TRPA1 channel (Homo sapiens (Human), UniProt O75762). Description: hTRPA1 CHO Ca2+ FLIPR Tetra assay, block of cinnamaldehyde induced calcium influx. The assay is classed as cell-based. To be noted: CHO cells expressing TRPA1, Hill coefficient fixed to 1.5. As for the experimental part: CHO cells expressing TRPA1 were plated into 384-well plates, incubated overnight at 37° C., and loaded with BD calcium indicator dye for 1 hr at 37° C. followed by 15 minutes at room temperature. The assay buffer was Hank's Balanced Salt Solution (HBSS) containing 20 mM HEPES (pH readjusted to 7.4) along with 0.02% BSA.
Following dye load and plate cool down, compounds were added to the cells using FLIPR Tetra. Plates were then incubated with compounds for 10 minutes or 90 minutes at room temperature prior to adding agonist. Following this incubation, about an EC50 concentration of cinnamaldehyde (75) was added to active the channels and block of cinnamaldehyde induced calcium influx was measured.
Fixing the Hill coefficient will generally reduce variability of the IC50 determination. The IC50 results were individually examined to make sure the MIN and MAX points were set correctly prior to validation of the results.

The mark [1] stands for this setting: read-out: hTRPA1 IC50 (10 min), compounds incubated 10 minutes at room temperature before cinnamaldehyde agonist.
Setting [2] is: read-out: hTRPA1 IC50 (90 min), compounds incubated 90 minutes at room temperature before cinnamaldehyde agonist.

Like-named read-outs stand apart in the source and are kept apart here.

Chain of human TRPA1 channel (O75762 whole entry): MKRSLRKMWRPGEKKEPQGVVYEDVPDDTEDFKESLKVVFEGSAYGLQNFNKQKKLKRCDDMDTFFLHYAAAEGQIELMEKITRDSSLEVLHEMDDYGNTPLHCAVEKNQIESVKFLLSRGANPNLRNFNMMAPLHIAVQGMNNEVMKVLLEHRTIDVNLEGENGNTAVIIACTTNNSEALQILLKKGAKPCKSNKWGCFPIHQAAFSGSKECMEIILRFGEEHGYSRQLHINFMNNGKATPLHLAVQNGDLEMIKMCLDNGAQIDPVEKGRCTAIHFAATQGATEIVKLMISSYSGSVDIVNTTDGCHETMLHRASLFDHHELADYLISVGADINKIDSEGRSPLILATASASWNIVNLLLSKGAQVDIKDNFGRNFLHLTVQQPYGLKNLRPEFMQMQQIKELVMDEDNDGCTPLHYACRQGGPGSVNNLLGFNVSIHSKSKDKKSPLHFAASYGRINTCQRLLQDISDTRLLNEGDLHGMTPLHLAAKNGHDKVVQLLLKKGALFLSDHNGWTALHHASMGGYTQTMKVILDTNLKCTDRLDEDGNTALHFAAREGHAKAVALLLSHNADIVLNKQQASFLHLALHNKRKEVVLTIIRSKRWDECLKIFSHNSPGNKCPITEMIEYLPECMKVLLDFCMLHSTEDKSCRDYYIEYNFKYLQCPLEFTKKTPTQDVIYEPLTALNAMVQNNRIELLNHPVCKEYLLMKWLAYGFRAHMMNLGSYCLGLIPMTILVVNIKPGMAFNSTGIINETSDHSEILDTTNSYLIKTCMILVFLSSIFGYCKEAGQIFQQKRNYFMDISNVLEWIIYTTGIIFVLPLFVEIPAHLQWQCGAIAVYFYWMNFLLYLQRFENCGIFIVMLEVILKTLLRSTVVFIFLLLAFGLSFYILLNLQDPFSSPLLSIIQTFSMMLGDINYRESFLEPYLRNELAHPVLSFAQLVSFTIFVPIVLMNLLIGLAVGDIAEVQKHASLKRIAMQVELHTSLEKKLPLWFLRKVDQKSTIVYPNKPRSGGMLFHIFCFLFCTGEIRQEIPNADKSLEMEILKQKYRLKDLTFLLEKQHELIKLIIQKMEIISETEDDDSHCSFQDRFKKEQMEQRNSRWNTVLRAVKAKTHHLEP

Broadly, the IC50 is the concentration needed to halve the response being measured. On to `Cn1cnc2ncn(Cc3nc([C@H]4[C@@H]5CN(c6cc7ccccc7cn6)C[C@@H]54)no3)c(=O)c21` [Example Compound 120, 1-((3-((1R,5S,6r)-3-(isoquinolin-3-yl)-3-azabicyclo[3.1.0]hexan-6-yl)-1,2,4-oxadiazol-5-yl)methyl)-7-methyl-1,7-dihydro-6H-purin-6-one], for which the IC50 under setting [1] was determined as 0.0908 µM and the IC50 under setting [2] is 0.081 µM.

Take `Cn1cc(-c2cccc(N3C[C@@H]4[C@H](C3)[C@H]4c3noc(Cn4cnc5ncn(C)c5c4=O)n3)c2)cn1` [Example Compound 200, 7-methyl-1-((3-((1R,5S,6r)-3-(3-(1-methyl-1H-pyrazol-4-yl)phenyl)-3-azabicyclo[3.1.0]hexan-6-yl)-1,2,4-oxadiazol-5-yl)methyl)-1,7-dihydro-6H-purin-6-one]: the IC50 runs as follows: under setting [1], 0.0384 µM; under setting [2], 0.017 µM.

As for `COCCNc1nc2ncn(Cc3nc([C@@H]4[C@H]5C=C(c6ccccc6)C[C@H]54)no3)c(=O)c2n1C` [Example Compound 260, 8-(2-methoxyethylamino)-7-methyl-1-[[3-[(1R,5R,6S)-3-phenyl-6-bicyclo[3.1.0]hex-2-enyl]-1,2,4-oxadiazol-5-yl]methyl]purin-6-one], the IC50 reads like this: under setting [1], 0.0426 µM; under setting [2], 0.035 µM.

Take `Cn1cnc2ncn(Cc3nc([C@H]4[C@@H]5C=C(c6ccc(Cl)cn6)C[C@@H]54)no3)c(=O)c21` [Example Compound 122, 1-((3-((1S,5S,6R)-3-(5-chloropyridin-2-yl)bicyclo[3.1.0]hex-2-en-6-yl)-1,2,4-oxadiazol-5-yl)methyl)-7-methyl-1,7-dihydro-6H-purin-6-one]: the IC50 was 0.142 µM under setting [1] and 0.13 µM under setting [2].

Turning to `Cn1cnc2ncn(Cc3nc([C@H]4[C@@H]5CN(c6ccc(C(F)(F)F)cc6)C[C@@H]54)no3)c(=O)c21` [Example Compound 31, 7-methyl-1-[[3-[(1R,5S,6r)-3-[4-(trifluoromethyl)phenyl]-3-azabicyclo[3.1.0]hexan-6-yl]-1,2,4-oxadiazol-5-yl]methyl]purin-6-one], under setting [1], the IC50 was 0.0971 µM.

As to `Cn1cnc2ncn(Cc3nc([C@H]4[C@@H]5CN(c6cc(F)c(Cl)c(F)c6)C[C@@H]54)no3)c(=O)c21` [Example Compound 271, 7-methyl-1-[[3-[(1S,5R)-3-(4-chloro-3,5-difluoro-phenyl)-3-azabicyclo[3.1.0]hexan-6-yl]-1,2,4-oxadiazol-5-yl]methyl]purin-6-one], the IC50 turned out to be 0.0347 µM under setting [1] and 0.011 µM under setting [2].

For the molecule `Cc1cccc(N2C[C@@H]3[C@H](C2)[C@H]3c2noc(Cn3cnc4ncn(C)c4c3=O)n2)c1` [Example Compound 224, 7-methyl-1-((3-((1R,5S,6r)-3-(m-tolyl)-3-azabicyclo[3.1.0]hexan-6-yl)-1,2,4-oxadiazol-5-yl)methyl)-1,7-dihydro-6H-purin-6-one], the IC50 reads like this: under setting [1], 0.0716 µM; under setting [2], 0.019 µM.

Take `Cn1nnc2ncn(Cc3nc([C@H]4[C@@H]5CN(c6cc(Cl)ccn6)C[C@@H]54)no3)c(=O)c21` [Example Compound 130, 6-((3-((1R,5S,6r)-3-(4-chloropyridin-2-yl)-3-azabicyclo[3.1.0]hexan-6-yl)-1,2,4-oxadiazol-5-yl)methyl)-1-methyl-1,6-dihydro-7H-[1,2,3]triazolo[4,5-d]pyrimidin-7-one]: the IC50 under setting [1] is 0.0745 µM and the IC50 under setting [2] stood at 0.044 µM.

In the case of `Cn1cnc2ncn(Cc3nc([C@H]4C[C@H](c5ccc(OC(F)F)cc5)C4)no3)c(=O)c21`, the 50% inhibitory concentration (IC50) under setting [1] is 0.142 µM.

Regarding `Cn1cnc2ncn(Cc3nc([C@H]4[C@@H]5CN(c6cccc(C#N)c6)C[C@@H]54)no3)c(=O)c21` [Example Compound 235, 3-((1R,5S,6r)-6-(5-((7-methyl-6-oxo-6,7-dihydro-1H-purin-1-yl)methyl)-1,2,4-oxadiazol-3-yl)-3-azabicyclo[3.1.0]hexan-3-yl)benzonitrile], the IC50 came to 0.0735 µM under setting [1] and 0.017 µM under setting [2].

With `Cn1cnc2ncn(Cc3nc([C@H]4C[C@H](C(=O)c5cccc(Cl)c5)C4)no3)c(=O)c21` [Example Compound 101, 1-((3-((1r,3r)-3-(3-chlorobenzoyl)cyclobutyl)-1,2,4-oxadiazol-5-yl)methyl)-7-methyl-1,7-dihydro-6H-purin-6-one], the IC50 runs as follows: under setting [1], 0.117 µM; under setting [2], 0.064 µM.

For `O=c1c2cccnc2ncn1Cc1nc([C@H]2[C@@H]3C=C(c4cccc(Cl)c4)C[C@@H]32)no1` [Example Compound 180, 3-((3-((1S,5S,6R)-3-(3-chlorophenyl)bicyclo[3.1.0]hex-2-en-6-yl)-1,2,4-oxadiazol-5-yl)methyl)pyrido[2,3-d]pyrimidin-4(3H)-one], the IC50 reads like this: under setting [1], 0.0233 µM; under setting [2], 0.024 µM.

With `Cn1cnc2ncn(Cc3nc([C@@H]4[C@H]5C=C(c6ccc7scnc7c6)C[C@H]54)no3)c(=O)c21` [Example Compound 113, 1-((3-((1R,5R,6S)-3-(benzo[d]thiazol-5-yl)bicyclo[3.1.0]hex-2-en-6-yl)-1,2,4-oxadiazol-5-yl)methyl)-7-methyl-1,7-dihydro-6H-purin-6-one], the IC50 under setting [1] amounted to 0.0362 µM and the IC50 under setting [2] was determined as 0.034 µM.

Take `Cn1cnc2ncn(Cc3nc([C@H]4[C@@H]5CN(c6ccncc6F)C[C@@H]54)no3)c(=O)c21` [Example Compound 131, 1-((3-((1R,5S,6r)-3-(3-fluoropyridin-4-yl)-3-azabicyclo[3.1.0]hexan-6-yl)-1,2,4-oxadiazol-5-yl)methyl)-7-methyl-1,7-dihydro-6H-purin-6-one]: the IC50 reads like this: under setting [1], 0.383 µM; under setting [2], 0.11 µM.

Take `O=c1c2cccnc2ncn1Cc1nc([C@H]2[C@@H]3C=C(c4cc(Cl)ccn4)C[C@@H]32)no1` [Example Compound 161, 3-((3-((1S,5S,6R)-3-(4-chloropyridin-2-yl)bicyclo[3.1.0]hex-2-en-6-yl)-1,2,4-oxadiazol-5-yl)methyl)pyrido[2,3-d]pyrimidin-4(3H)-one]: the IC50 under setting [1] turned out to be 0.315 µM and the IC50 under setting [2] came to 0.2 µM.

On to `Cc1ccnc2ncn(Cc3nc([C@H]4C[C@H](c5ccc(F)cc5)C4)no3)c(=O)c12` [Example Compound 164, 3-((3-((1r,3r)-3-(4-fluorophenyl)cyclobutyl)-1,2,4-oxadiazol-5-yl)methyl)-5-methylpyrido[2,3-d]pyrimidin-4(3H)-one], for which, under setting [1], the IC50 came out at 0.0151 µM.

Turning to `Cn1cnc2ncn(Cc3nc([C@H]4[C@@H]5CN(c6ccc(C#N)cc6)C[C@@H]54)no3)c(=O)c21` [Example Compound 192, 4-((1R,5S,6r)-6-(5-((7-methyl-6-oxo-6,7-dihydro-1H-purin-1-yl)methyl)-1,2,4-oxadiazol-3-yl)-3-azabicyclo[3.1.0]hexan-3-yl)benzonitrile], the IC50 was determined as 0.0274 µM under setting [1] and 0.013 µM under setting [2].

For `Cn1nnc2ncn(Cc3nc([C@@H]4[C@H]5C=C(c6ccccc6)C[C@H]54)no3)c(=O)c21` [Example Compound 109, 1-methyl-6-((3-((1R,5R,6S)-3-phenylbicyclo[3.1.0]hex-2-en-6-yl)-1,2,4-oxadiazol-5-yl)methyl)-1,6-dihydro-7H-[1,2,3]triazolo[4,5-d]pyrimidin-7-one], the IC50 under setting [1] came out at 0.0104 µM and the IC50 under setting [2] turned out to be 0.0041 µM.

With `Cn1cnc2ncn(Cc3nc([C@H]4[C@@H]5CN(c6ccc7c(c6)CCCC7)C[C@@H]54)no3)c(=O)c21` [Example Compound 136], the half-maximal inhibitory concentration (IC50) under setting [1] came out at 0.685 µM.

With `Cn1cnc2ncn(Cc3nc([C@H]4[C@@H]5CN(c6ccccc6C#N)C[C@@H]54)no3)c(=O)c21` [Example Compound 98, 2-((1R,5S,6r)-6-(5-((7-methyl-6-oxo-6,7-dihydro-1H-purin-1-yl)methyl)-1,2,4-oxadiazol-3-yl)-3-azabicyclo[3.1.0]hexan-3-yl)benzonitrile], the IC50 is, setting by setting: under setting [1], 0.157 µM; under setting [2], 0.1 µM.

On to `O=c1c2cccc(=O)n2ccn1Cc1nc([C@@H]2[C@H]3C=C(c4ccccc4)C[C@H]32)no1` [Example Compound 275, 2-[[3-[(1R,5R,6S)-3-phenyl-6-bicyclo[3.1.0]hex-2-enyl]-1,2,4-oxadiazol-5-yl]methyl]pyrido[1,2-a]pyrazine-1,6-dione], for which the 50% inhibitory concentration (IC50) is 0.0119 µM under setting [1] and 0.0065 µM under setting [2].

Regarding `Cn1cnc2ncn(Cc3nc([C@H]4[C@@H]5CN(c6cccc(C(F)(F)F)c6)C[C@@H]54)no3)c(=O)c21` [Example Compound 30, 7-methyl-1-[[3-[(1R,5S,6r)-3-[3-(trifluoromethyl)phenyl]-3-azabicyclo[3.1.0]hexan-6-yl]-1,2,4-oxadiazol-5-yl]methyl]purin-6-one], the IC50 under setting [1] came out at 0.0527 µM.

On to `O=c1c2cccnc2cnn1Cc1nc([C@H]2[C@@H]3CN(c4ccnc(F)c4)C[C@@H]32)no1` [Example Compound 152, 6-((3-((1R,5S,6r)-3-(2-fluoropyridin-4-yl)-3-azabicyclo[3.1.0]hexan-6-yl)-1,2,4-oxadiazol-5-yl)methyl)pyrido[2,3-d]pyridazin-5(6H)-one], for which the IC50 under setting [1] was found to be 0.0587 µM and the IC50 under setting [2] stood at 0.041 µM.

Take `Cc1ccnc2ncn(Cc3nc([C@H]4C[C@](O)(c5ccc6ccccc6c5)C4)no3)c(=O)c12` [Example Compound 233, 3-((3-((1s,3s)-3-hydroxy-3-(naphthalen-2-yl)cyclobutyl)-1,2,4-oxadiazol-5-yl)methyl)-5-methylpyrido[2,3-d]pyrimidin-4(3H)-one]: the IC50 under setting [1] stood at 0.0386 µM.
